Laboratory results: patent US20230391766A1, “1-(2-(4-CYCLOPROPYL-1H-1,2,3-TRIAZOL-1-YL)ACETYL)-4-HYDROXY-N-(BENZYL)PYRROLIDIN E-2-CARBOXAMIDE DERIVATIVES AS VHL INHIBITORS FOR THE TREATMENT OF ANEMIA AND CANCER” (Genentech, Inc., priority 2020, published 2023)

Columns and labels:
VHL [1] = target: T1, VHL (Homo sapiens, UniProt P40337); experiment: VHL nanoBRET (+ Digitonin); format: cell-based
T1 construct: expressed in transfected cells
Experimental: (§1) The VHL NanoBRET™ Target Engagement Assay analyzes the apparent affinity of test compounds for VHL in cells by competitive displacement of a VHL NanoBRET™ tracer reversibly bound to a NanoLuc® VHL fusion protein stably expressed in the cells.
(§2) 50 nL of control compound (10 mM; parental unlabeled VHL antagonist; see structure below) and 50 nL of DMSO (negative control) were dispensed into the appropriate control wells. DMSO was backfilled to a final volume of 50 nL as required. […] Max Signal control wells consisted of DMSO only treated wells. Minimum Signal control wells contained of 10 uM parental unlabeled VHL antagonist (control compound—see structure below). […] Background Signal control wells were prepared without tracer for background correction steps.
(§3) The raw BRET ratio values were calculated by dividing the acceptor emission value (610 nm) by the donor emission value (460 nm) for each sample. To correct for background, the BRET ratio in the absence of tracer (average of no-tracer control samples) was subtracted from the BRET ratio of each sample. Raw BRET units were converted to milliBRET units (mBU) by multiplying each raw BRET value by 1,000. The normalized NanoBRET™ signal was calculated relative to the Max Signal control wells (DMSO treated control wells) and the Minimum Signal control wells. Percentage inhibition was calculated relative to the Minimum Signal control and Maximum Signal control wells. IC50 values were derived by four parameter curve fitting using the Robust method.

VHL [2] = target: T1, VHL; experiment: VHL HEK-293 BRET Assay (VHL NanoBRET Target Engagement Assay); format: cell-based; conditions: for IC50: HEK 293 RT VHL-NanoLuc stable cells, 1 uM tracer, 2 hours, geometric mean where more than one measurement, read-out: VHL binding in cells (HEK293 nanoBRET); for Ratio cell permeability shift: ratio not defined
Experimental: as §1, §2, §3

T1 sequence (P40337 whole entry): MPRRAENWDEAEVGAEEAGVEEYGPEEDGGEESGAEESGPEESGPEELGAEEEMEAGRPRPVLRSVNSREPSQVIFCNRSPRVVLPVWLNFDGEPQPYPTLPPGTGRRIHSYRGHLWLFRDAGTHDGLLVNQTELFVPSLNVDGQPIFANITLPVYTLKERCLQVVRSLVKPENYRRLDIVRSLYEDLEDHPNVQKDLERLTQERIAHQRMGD

SMILES	EC50 (VHL [1]) [nM]	IC50 (VHL [2]) [nM]	Ratio cell permeability shift (VHL [2])
C[C@@H](NC(=O)[C@@H]1C[C@@H](O)CN1C(=O)[C@@H](n1cc(C2CC2)nn1)C(C)(C)C)c1ccc(-c2ccccc2F)cc1 [Example S42, (2S,4R)-1-((S)-2-(4-cyclopropyl-1H-1,2,3-triazol-1-yl)-3,3-dimethylbutanoyl)-N—((R)-1-(2′-fluoro-[1,1′-biphenyl]-4-yl)ethyl)-4-hydroxypyrrolidine-2-carboxamide]	1540	1100	0.71
COC(=O)c1nnn([C@H](C(=O)N2C[C@H](O)C[C@H]2C(=O)N[C@H](Cc2ccc(-c3ccccc3)cc2)C(N)=O)C(C)C)c1C (single isomer, unassigned) [Isomer B from Example S33]	990	1620	1.64
C[C@H](NC(=O)[C@@H]1C[C@@H](O)CN1C(=O)[C@@H](n1cc(C2CC2)nn1)C(C)(C)C)c1ccc(-c2ccccc2F)cc1 [Example S41, (2S,4R)-1-((S)-2-(4-cyclopropyl-1H-1,2,3-triazol-1-yl)-3,3-dimethylbutanoyl)-N—((S)-1-(2′-fluoro-[1,1′-biphenyl]-4-yl)ethyl)-4-hydroxypyrrolidine-2-carboxamide]	10	10	0.72
Cc1ncsc1-c1ccc(C(C)NC(=O)[C@@H]2C[C@@H](O)CN2C(=O)[C@@H](n2cc(C3CC3)nn2)C(C)(C)C)c(Cl)c1 (stereo partly drawn) [Example S22, (2S,4R)—N-(1-(2-chloro-4-(4-methylthiazol-5-yl)phenyl)ethyl)-1-((S)-2-(4-cyclopropyl-1H-1,2,3-triazol-1-yl)-3,3-dimethylbutanoyl)-4-hydroxypyrrolidine-2-carboxamide]	10	10	0.72
CC(C)[C@@H](C(=O)N1C[C@H](O)C[C@H]1C(=O)N[C@H](Cc1ccc(-c2ccccc2)cc1)C(N)=O)n1cc(-c2cccs2)nn1 [Example S38, (2S,4R)—N—((R)-3-([1,1′-biphenyl]-4-yl)-1-amino-1-oxopropan-2-yl)-4-hydroxy-1-((S)-3-methyl-2-(4-(thiophen-2-yl)-1H-1,2,3-triazol-1-yl)butanoyl)pyrrolidine-2-carboxamide]	170	190	1.12
Cc1c(C(=O)O)nnn1[C@H](C(=O)N1C[C@H](O)C[C@H]1C(=O)N[C@H](Cc1ccc(-c2ccccc2)cc1)C(N)=O)C(C)C [Example S35, 1-((S)-1-((2S,4R)-2-(((R)-3-([1,1′-biphenyl]-4-yl)-1-amino-1-oxopropan-2-yl)carbamoyl)-4-hydroxypyrrolidin-1-yl)-3-methyl-1-oxobutan-2-yl)-5-methyl-1H-1,2,3-triazole-4-carboxylic acid]	13000		
CC(C)[C@@H](C(=O)N1C[C@H](O)C[C@H]1C(=O)N[C@H](Cc1ccc(-c2ccccc2)cc1)C(N)=O)n1nnc2ccccc21 (single isomer, unassigned) [Isomer A from Example S36]	390	300	0.77
Cc1c(C(=O)O)nnn1[C@@H](C(=O)N1C[C@H](O)C[C@H]1C(=O)N[C@H](Cc1ccc(-c2ccccc2)cc1)C(N)=O)C(C)C [Example S34, 1-((R)-1-((2S,4R)-2-(((R)-3-([1,1′-biphenyl]-4-yl)-1-amino-1-oxopropan-2-yl)carbamoyl)-4-hydroxypyrrolidin-1-yl)-3-methyl-1-oxobutan-2-yl)-5-methyl-1H-1,2,3-triazole-4-carboxylic acid]	> 100000		
Cc1ncsc1-c1ccc(CNC(=O)[C@@H]2C[C@@H](O)CN2C(=O)[C@@H](n2cc(C3(C(F)(F)F)CC3)nn2)C(C)(C)C)cc1 [Example S28, (2S,4R)-1-((S)-3,3-dimethyl-2-(4-(1-(trifluoromethyl)cyclopropyl)-1H-1,2,3-triazol-1-yl)butanoyl)-4-hydroxy-N-(4-(4-methylthiazol-5-yl)benzyl)pyrrolidine-2-carboxamide]	40	40	0.98
C[C@H](NC(=O)[C@@H]1C[C@@H](O)CN1C(=O)[C@@H](n1cc(C2CC2)nn1)C(C)(C)C)c1ccc(-c2ccccc2Cl)cc1 [Example S46, (2S,4R)—N—((S)-1-(2′-chloro-[1,1′-biphenyl]-4-yl)ethyl)-1-((S)-2-(4-cyclopropyl-1H-1,2,3-triazol-1-yl)-3,3-dimethylbutanoyl)-4-hydroxypyrrolidine-2-carboxamide]	10	10	0.84
Cc1ncsc1-c1ccc(CNC(=O)[C@@H]2C[C@@H](O)CN2C(=O)[C@@H](n2cc(C3(C)CC3)nn2)C(C)(C)C)cc1 [Example S29, (2S,4R)-1-((S)-3,3-dimethyl-2-(4-(1-methylcyclopropyl)-1H-1,2,3-triazol-1-yl)butanoyl)-4-hydroxy-N-(4-(4-methylthiazol-5-yl)benzyl)pyrrolidine-2-carboxamide]	10	10	1.04
Cc1ncsc1-c1ccc2c(c1)CCCC[C@H]2NC(=O)[C@@H]1C[C@@H](O)CN1C(=O)[C@@H](n1cc(C2CC2)nn1)C(C)(C)C [Example S44, (2S,4R)-1-((S)-2-(4-cyclopropyl-1H-1,2,3-triazol-1-yl)-3,3-dimethylbutanoyl)-4-hydroxy-N—((R)-2-(4-methylthiazol-5-yl)-6,7,8,9-tetrahydro-5H-benzo[7]annulen-5-yl)pyrrolidine-2-carboxamide]	< 5	< 5	
Cc1nnn([C@H](C(=O)N2C[C@H](O)C[C@H]2C(=O)N[C@H](Cc2ccc(-c3ccccc3)cc2)C(N)=O)C(C)C)c1C [Example S37, (2S,4R)—N—((R)-3-([1,1′-biphenyl]-4-yl)-1-amino-1-oxopropan-2-yl)-1-((S)-2-(4,5-dimethyl-1H-1,2,3-triazol-1-yl)-3-methylbutanoyl)-4-hydroxypyrrolidine-2-carboxamide]	1160	1660	1.43
Cc1ncsc1-c1ccc(C(C)NC(=O)[C@@H]2C[C@@H](O)CN2C(=O)[C@@H](n2cc(C3CC3)nn2)C23CC4CC(CC(C4)C2)C3)c(Cl)c1 (stereo partly drawn) [Example S23, (2S,4R)-1-((2S)-2-(adamantan-1-yl)-2-(4-cyclopropyl-1H-1,2,3-triazol-1-yl)acetyl)-N-(1-(2-chloro-4-(4-methylthiazol-5-yl)phenyl)ethyl)-4-hydroxypyrrolidine-2-carboxamide]	40	20	0.42
Cc1ncsc1-c1ccc(CNC(=O)[C@@H]2C[C@@H](O)CN2C(=O)[C@@H](n2cc(C3(c4cn([C@H](C(=O)N5C[C@H](O)C[C@H]5C(=O)NCc5ccc(-c6scnc6C)cc5)C(C)(C)C)nn4)CC3)nn2)C(C)(C)C)cc1 [Compound 31, (2S,2'S,4R,4′R)-1,1′-((2S,2'S)-2,2′-(cyclopropane-1,1-diylbis(JH-1,2,3-triazole-4,1-diyl))bis(3,3-dimethylbutanoyl))bis(4-hydroxy-N-(4-(4-methylthiazol-5-yl)benzyl)pyrrolidine-2-carboxamide)]	20	310	19.75
CC[C@H](C)[C@@H](C(=O)N1C[C@H](O)C[C@H]1C(=O)N[C@H](Cc1ccc(-c2ccccc2)cc1)C(N)=O)n1cc(C2CC2)nn1 [Example S5, (2S,4R)—N—((R)-3-([1,1′-biphenyl]-4-yl)-1-amino-1-oxopropan-2-yl)-1-((2S,3S)-2-(4-cyclopropyl-1H-1,2,3-triazol-1-yl)-3-methylpentanoyl)-4-hydroxypyrrolidine-2-carboxamide]	170	130	0.77
NC(=O)[C@@H](Cc1ccc(-c2ccccc2)cc1)NC(=O)[C@@H]1C[C@@H](O)CN1C(=O)[C@@H](n1cc(C2CC2)nn1)C12CC3CC(CC(C3)C1)C2 [Example S8, (2S,4R)—N—((R)-3-([1,1′-biphenyl]-4-yl)-1-amino-1-oxopropan-2-yl)-1-((2S)-2-(adamantan-1-yl)-2-(4-cyclopropyl-1H-1,2,3-triazol-1-yl)acetyl)-4-hydroxypyrrolidine-2-carboxamide]	160	120	0.73
C#CC1(c2cn([C@H](C(=O)N3C[C@H](O)C[C@H]3C(=O)NCc3ccc(-c4scnc4C)cc3)C(C)(C)C)nn2)CC1 [Compound 30, (2S,4R)-1-((S)-2-(4-(1-ethynylcyclopropyl)-1H-1,2,3-triazol-1-yl)-3,3-dimethylbutanoyl)-4-hydroxy-N-(4-(4-methylthiazol-5-yl)benzyl)pyrrolidine-2-carboxamide]	20	20	1.15
Cc1ncsc1-c1ccc(CNC(=O)[C@@H]2C[C@@H](O)CN2C(=O)[C@H](C2CCCCC2)n2cc(C3CC3)nn2)cc1 [Example S25, (2S,4R)-1-((S)-2-cyclohexyl-2-(4-cyclopropyl-1H-1,2,3-triazol-1-yl)acetyl)-4-hydroxy-N-(4-(4-methylthiazol-5-yl)benzyl)pyrrolidine-2-carboxamide]			0.67
